Patent US20100314318A1, “HALOGENATED AMIDE BIOCIDAL COMPOUNDS AND METHODS FOR TREATING WATER SYSTEMS AT NEAR NEUTRAL TO HIGH PH” (priority 2009, published 2010)

Experiments:
[1] = system: bacteria in Cooling Tower water; experiment: Efficacy in cooling tower water sample (about pH 8.3), serial dilution count; type: cell-based
[2] = system: bacteria isolated from Cooling Tower water; experiment: Efficacy in sterile artificial Cooling Tower water (approx. pH 8.5); type: cell-based; settings: 30° C.
[3] = system: bacteria isolated from field; experiment: Efficacy in semi-synthetic metal working fluid; type: cell-based; settings: room temperature, MWF
[4] = system: Pseudomonas aeruginosa ATCC 10145; experiment: Bactericidal efficacy in synthetic salts water pH 8.5; type: cell-based; settings: 37° C.
Method: A sterile synthetic salts water is prepared and inoculated with Pseudomonas aeruginosa ATCC 10145 at about 10^7 CFU/mL. The synthetic water is prepared to contain (in 1 liter deionized water) the following: CaCl2, 0.2203 g; MgSO4, 0.1847 g; and NaHCO3, 0.2033 g. The final pH of the synthetic cooling water is adjusted to 8.5. Aliquots of the cell suspension are then treated with biocides at selected dosage levels. The same contaminated water sample without biocide is used as control. After incubating at 37° C. for different time intervals, numbers of surviving bacteria are enumerated using a serial dilution method. After incubating for 24 hr, all cell suspensions are reinoculated with Pseudomonas aeruginosa ATCC 10145 at 10^6 CFU/mL. The efficacy results for […]

[5] = going from pH 6 to pH 8.9; cited from earlier work
bacterial consortium = experiment: Preservation of calcium carbonate slurry Hydrocarb 90 (pH 8.7); settings: 24-hr contact
[6] = Stability against hydrolysis in buffered dilute solutions, HPLC

## N#CC(Br)(Br)C(N)=O [DBNPA, 2,2-Dibromo-3-nitrilopropionamide]
[1]; 12.5 ppm active, 1 hr
  Bacterial log10 reduction after biocide addition: 5.3 log10
[1]; 12.5 ppm active, 48 hrs, re-inoculated
  Bacterial log10 reduction after biocide addition: 1.5 log10
[1]; 12.5 ppm active, 72 hrs, re-inoculated
  Bacterial log10 reduction after biocide addition: 0.7 log10
[1]; 12.5 ppm active, 96 hrs, re-inoculated
  Bacterial log10 reduction after biocide addition: 0.3 log10
[1]; 25 ppm active, 1 hr
  Bacterial log10 reduction after biocide addition: 5.2 log10
[1]; 25 ppm active, 3 hr
  Bacterial log10 reduction after biocide addition: >=5.7 log10
[1]; 25 ppm active, 24 hrs
  Bacterial log10 reduction after biocide addition: >=6.3 log10
[1]; 25 ppm active, 48 hrs, re-inoculated
  Bacterial log10 reduction after biocide addition: 4.2 log10
[1]; 25 ppm active, 72 hrs, re-inoculated
  Bacterial log10 reduction after biocide addition: 1.0 log10
[1]; 25 ppm active, 96 hrs, re-inoculated
  Bacterial log10 reduction after biocide addition: 0.7 log10
[1]; 50 ppm active, 1 hr
  Bacterial log10 reduction after biocide addition: >=5.3 log10
[1]; 50 ppm active, 3 hr
  Bacterial log10 reduction after biocide addition: >=5.7 log10
[1]; 50 ppm active, 24 hrs
  Bacterial log10 reduction after biocide addition: >=6.3 log10
[1]; 50 ppm active, 48 hrs, re-inoculated
  Bacterial log10 reduction after biocide addition: 6.1 log10
[1]; 50 ppm active, 72 hrs, re-inoculated
  Bacterial log10 reduction after biocide addition: 1.0 log10
[1]; 50 ppm active, 96 hrs, re-inoculated
  Bacterial log10 reduction after biocide addition: 0.8 log10
[2]; 1 h
  Minimum biocide dosage (ppm, active) needed for at least 3 log10 bacterial reduction: 8.0 ppm
[2]; 3 h
  Minimum biocide dosage (ppm, active) needed for at least 3 log10 bacterial reduction: 8.0 ppm
[2]; 24 h
  Minimum biocide dosage (ppm, active) needed for at least 3 log10 bacterial reduction: 11.0 ppm
[2]; 48 h, reinoculated
  Minimum biocide dosage (ppm, active) needed for at least 3 log10 bacterial reduction: 15.0 ppm
[2]; 72 h, reinoculated
  Minimum biocide dosage (ppm, active) needed for at least 3 log10 bacterial reduction: 15.0 ppm
[2]; 96 h, reinoculated
  Minimum biocide dosage (ppm, active) needed for at least 3 log10 bacterial reduction: 21.0 ppm
[3]; 2 h
  Minimum dosage (ppm, active) required for at least 3 log10 reduction in bacterial counts: 42 ppm
[3]; 4 h
  Minimum dosage (ppm, active) required for at least 3 log10 reduction in bacterial counts: 32 ppm
[3]; 24 h
  Minimum dosage (ppm, active) required for at least 3 log10 reduction in bacterial counts: 42 ppm
[3]; 48 h
  Minimum dosage (ppm, active) required for at least 3 log10 reduction in bacterial counts: 55 ppm
[3]; 72 h
  Minimum dosage (ppm, active) required for at least 3 log10 reduction in bacterial counts: 55 ppm
[3]; 96 h
  Minimum dosage (ppm, active) required for at least 3 log10 reduction in bacterial counts: 55 ppm
[4]; 1 hr, pH 8.5
  Dosage required for 3 log10 bacterial reduction (ppm, active): 2.9 ppm
[4]; 3 hr, pH 8.5
  Dosage required for 3 log10 bacterial reduction (ppm, active): 2.9 ppm
[4]; 24 hr, pH 8.5
  Dosage required for 3 log10 bacterial reduction (ppm, active): 4.4 ppm
[4]; 48 hr, pH 8.5, reinoculated after 24 hr
  Dosage required for 3 log10 bacterial reduction (ppm, active): 50.0 ppm
[5]
  factor by which rate of disappearance increases: about 450
Bacterial consortium; 5 ppm
  change in populations of bacteria (FIG. 6): decrease relatively little
Bacterial consortium; 10 ppm
  decrease in numbers of bacteria (FIG. 6): approximately 0.5 orders of magnitude
[6]; pH 6.9, T = 30 C., 0 hours
  level of DBMAL or DBNPA remaining (HPLC): 3991
[6]; pH 6.9, T = 30 C., 2 hours
  level of DBMAL or DBNPA remaining (HPLC): 4155
[6]; pH 6.9, T = 30 C., 24 hours
  level of DBMAL or DBNPA remaining (HPLC): 2557
[6]; pH 6.9, T = 30 C., 48 hours
  level of DBMAL or DBNPA remaining (HPLC): 1361
[6]; pH 6.9, T = 30 C., 72 hours
  level of DBMAL or DBNPA remaining (HPLC): 918
[6]; pH 6.9, T = 30 C., 96 hours
  level of DBMAL or DBNPA remaining (HPLC): 658
[6]; pH 8, T = −1 C., 0 hours
  level of DBMAL or DBNPA remaining (HPLC): 4068
[6]; pH 8, T = −1 C., 2 hours
  level of DBMAL or DBNPA remaining (HPLC): 3998
[6]; pH 8, T = −1 C., 24 hours
  level of DBMAL or DBNPA remaining (HPLC): 3506
[6]; pH 8, T = −1 C., 48 hours
  level of DBMAL or DBNPA remaining (HPLC): 3578
[6]; pH 8, T = −1 C., 72 hours
  level of DBMAL or DBNPA remaining (HPLC): 3149
[6]; pH 8, T = −1 C., 96 hours
  level of DBMAL or DBNPA remaining (HPLC): 3070
[6]; pH 9, T = −1 C., 0 hours
  level of DBMAL or DBNPA remaining (HPLC): 3842
[6]; pH 9, T = −1 C., 2 hours
  level of DBMAL or DBNPA remaining (HPLC): 2818
[6]; pH 9, T = −1 C., 24 hours
  level of DBMAL or DBNPA remaining (HPLC): 1256
[6]; pH 9, T = −1 C., 48 hours
  level of DBMAL or DBNPA remaining (HPLC): 659
[6]; pH 9, T = −1 C., 72 hours
  level of DBMAL or DBNPA remaining (HPLC): 363
[6]; pH 9, T = −1 C., 96 hours
  level of DBMAL or DBNPA remaining (HPLC): 239
